Literature values as cited in US20240325292A1, “COMPOSITION AND METHODS OF TREATMENT USING TRANSDERMAL SUPPLEMENTATION” (Xygenyx Inc., priority 2023, published 2024).

Columns and labels:
[1] = as penetration enhancer
[2] = test system: wide dynamic range neurons in the ventroposterolateral nucleus of the thalamus; conditions: in vivo
[3] = as compared to α-tocopherol = 1.0
[4] = not given; remark: listed apart in the source
rheumatoid arthritis = conditions: arthritic subjects
[5] = dietary intake in equal portions
[6] = test system: markers of inflammation in the blood; conditions: individuals with metabolic syndrome
[7] = in vivo
[8] = 400-500 IU, in combination with 10-20 mg β-carotene and 400-500 mg vitamin C

In the case of `CC(C)[C@@H]1CC[C@@H](C)C[C@H]1O` [Menthol], the “increase of transdermal drug uptake, factor” value [1] is listed as ≥ 10.

In the case of `CCCCCc1cc(O)c2c(c1)OC(C)(C)C1CCC(C)=CC21` (stereo not drawn) [THC, Δ-9-tetrahydrocannabinol], the “potency in mediating pain relative to morphine” value [2] is listed as “ten times more powerful than morphine”.

For `CC12CCC(CC1)C(C)(C)O2` [eucalyptol, 1,8-epoxy-p-menthane], the “increase of transdermal drug uptake, factor” value [1] is given as “more than 10”.

For `C/C(=C\CO)CCC[C@H](C)CCC[C@H](C)CCCC(C)C` [phytol, Phytol], the solubility in water is given as “nearly insoluble in water”.

In the case of `Cc1c(C)c2c(c(C)c1O)CC[C@@](C)(CCC[C@H](C)CCC[C@H](C)CCCC(C)C)O2` [α-tocopherol], the relative biological activity [3] is listed as 1.0, the “progression of age-related macular degeneration” value [4, 8] is listed as “dramatically reduce the progression” and the “reduction in the development of age-related cataracts” value [4, 8] is listed as 23%. The “functional health of sperm” value ([4]; 800-900 IU/day) was “improve functional health of sperm”, the “blood plasma concentration of F2-isoprostane” value ([4]; 1600-3200 IU/day) was “significantly lower” and the “reduction of risk of coronary disease” value ([4]; doses up to 400 IU/day) was “up to 34%”. For the same molecule, the “reduction of risk of developing neurodegenerative diseases (Alzheimer's Syndrome or dementia)” value ([4]; doses up to 400 IU/day, controlled trials) was ≤ 24%.

For `C=C1CC/C=C(\C)CC[C@@H]2[C@@H]1CC2(C)C` [β-caryophyllene], the “joint and lymph node swelling, leukocyte number” value (rheumatoid arthritis) is given as “reduced swelling of joints and lymph nodes as well as the number of circulating and articular leukocytes”.

For `Cc1cc(O)c(C)c2c1O[C@](C)(CCC[C@H](C)CCC[C@H](C)CCCC(C)C)CC2` [β-tocopherol], the relative biological activity [3] is listed as 0.5.

For `Cc1c(O)cc2c(c1C)O[C@](C)(CCC[C@H](C)CCC[C@H](C)CCCC(C)C)CC2` [γ-tocopherol], the relative biological activity [3] is given as 0.1 and the “concentration in vivo relative to α-tocopherol” value [5] is given as “roughly 10%”.

For `Cc1cc(O)cc2c1O[C@](C)(CCC[C@H](C)CCC[C@H](C)CCCC(C)C)CC2` [δ-tocopherol], the relative biological activity [3] is given as 0.03 and the “markers of inflammation in the blood” value [6] is given as “reduced markers of inflammation”.

For “HGH: hormone comprising a peptide chain that is synthesized in the pituitary gland”, the biological half-life [7] is listed as 10-20 minutes.
